Assay results: the NIST ThermoML archive (doi:10.1021/je060271a)

Details: 283.15 K, Liquid, Vibrating tube method

CCCCCCCC(=O)OCC(COC(=O)CCCCCCC)(COC(=O)CCCCCCC)COC(=O)CCCCCCC [pentaerythritol tetraoctanoate]
Details | mass density [kg/m3]
7440.8 kPa | 974.4
7459 kPa | 974.5
7477.1 kPa | 974.5
7498.5 kPa | 974.5
7516.3 kPa | 974.6
7534.1 kPa | 974.5
7555.6 kPa | 974.6
7574.3 kPa | 974.6
7592.6 kPa | 974.6
7614.9 kPa | 974.6
7633.7 kPa | 974.6
7652.5 kPa | 974.6
7671.5 kPa | 974.7
7693.9 kPa | 974.6
7713.6 kPa | 974.7
7732.4 kPa | 974.7
7751.9 kPa | 974.7
7774.9 kPa | 974.8
7794.2 kPa | 974.7
7813.7 kPa | 974.8
7837.5 kPa | 974.7
7857 kPa | 974.8
7877.2 kPa | 974.8
7897.6 kPa | 974.8
7917.4 kPa | 974.8
7942.4 kPa | 974.8
7963.7 kPa | 974.8
7984.1 kPa | 974.8
8005.2 kPa | 974.9
8025.4 kPa | 974.9
8049.7 kPa | 974.8
8070.2 kPa | 974.9
8092.5 kPa | 975.1
8117.1 kPa | 974.9
8138 kPa | 974.8
8159.8 kPa | 974.9
8184.3 kPa | 974.9
8205.1 kPa | 975
8227.9 kPa | 974.9
8252.3 kPa | 975
8274.2 kPa | 975
8300.2 kPa | 975.1
8322.1 kPa | 975.1
8344.2 kPa | 975.1
8367 kPa | 975.1
8393.5 kPa | 975
8415.8 kPa | 975.1
8438.6 kPa | 975
8465.5 kPa | 975.1
8487.9 kPa | 975.1
8516.4 kPa | 975.2
8539.8 kPa | 975.1
8563.6 kPa | 975.1
8586.9 kPa | 975.2
8615 kPa | 975.2
8638.6 kPa | 975.2
8666.6 kPa | 975.3
8690.7 kPa | 975.3
8714.3 kPa | 975.1
8744.3 kPa | 975.2
8768.6 kPa | 975.3
8793.6 kPa | 975.4
8822.8 kPa | 975.4
8847.1 kPa | 975.3
8872.8 kPa | 975.3
8898.8 kPa | 975.4
8929.2 kPa | 975.3
8953.6 kPa | 975.4
8985 kPa | 975.4
9011.4 kPa | 975.4
9037.2 kPa | 975.4
9063.1 kPa | 975.5
9095 kPa | 975.3
9120.9 kPa | 975.4
9152 kPa | 975.5
9179.6 kPa | 975.5
9206.9 kPa | 975.5
9238.7 kPa | 975.5
9266.5 kPa | 975.5
9295.1 kPa | 975.6
9323 kPa | 975.5
9356.5 kPa | 975.6
9383.9 kPa | 975.2
9416.6 kPa | 975.6
9445.6 kPa | 975.6
9474.8 kPa | 975.6
9509.1 kPa | 975.6
9537.9 kPa | 975.7
9567.4 kPa | 975.8
9602.7 kPa | 975.7
9633 kPa | 975.8
9662.7 kPa | 975.7
9692.8 kPa | 975.8
9730.2 kPa | 975.8
9760.9 kPa | 975.8
9797 kPa | 975.9
9827.4 kPa | 975.9
9859.1 kPa | 975.8
9890.1 kPa | 975.9
9927.8 kPa | 975.9
9959.5 kPa | 976
9991.2 kPa | 976
10030 kPa | 975.8
10063 kPa | 975.9
10103 kPa | 976
10135 kPa | 975.9
10169 kPa | 976
10203 kPa | 976.1
10243 kPa | 976.1
10276 kPa | 976
10311 kPa | 976.1
10352 kPa | 976
10387 kPa | 976.1
10421 kPa | 976.1
10464 kPa | 976.2
10500 kPa | 976.2
10539 kPa | 976.3
10575 kPa | 976.4
10612 kPa | 976.3
10655 kPa | 976.1
10692 kPa | 976.4
10736 kPa | 976.3
10773 kPa | 976.4
10813 kPa | 976.3
10851 kPa | 976.4
10890 kPa | 976.5
10936 kPa | 976.5
10974 kPa | 976.5
11022 kPa | 976.5
11063 kPa | 976.4
11103 kPa | 976.5
11143 kPa | 976.6
11183 kPa | 976.6
11232 kPa | 976.8
11272 kPa | 976.6
11322 kPa | 976.6
11363 kPa | 976.6
11404 kPa | 976.6
11456 kPa | 976.9
11499 kPa | 976.7
11542 kPa | 976.8
11594 kPa | 976.8
11639 kPa | 976.8
11683 kPa | 976.8
11736 kPa | 976.9
11780 kPa | 976.8
11826 kPa | 977
11881 kPa | 976.9
11928 kPa | 976.9
11974 kPa | 977.1
12022 kPa | 977
12078 kPa | 977
12126 kPa | 977.1
12174 kPa | 977.1
12234 kPa | 977.1
12283 kPa | 977.2
12334 kPa | 977.2
12394 kPa | 977.1
12445 kPa | 977.3
12496 kPa | 977.2
12548 kPa | 977.3
12611 kPa | 977.3
12662 kPa | 977.3
12708 kPa | 977.5
12785 kPa | 977.5
12834 kPa | 977.5
12903 kPa | 977.4
12955 kPa | 977.6
12988 kPa | 977.5
13021 kPa | 977.6
13054 kPa | 977.6
13095 kPa | 977.6
13128 kPa | 977.6
13170 kPa | 977.5
13204 kPa | 977.8
13238 kPa | 977.7
13272 kPa | 977.7
13314 kPa | 977.8
13350 kPa | 977.7
13385 kPa | 977.8
13427 kPa | 977.8
13463 kPa | 977.8
13506 kPa | 977.9
13542 kPa | 977.9
13579 kPa | 977.9
13615 kPa | 978
13660 kPa | 977.9
13697 kPa | 977.8
13734 kPa | 977.9
13779 kPa | 978
13816 kPa | 978.1
13863 kPa | 978
13902 kPa | 978
13942 kPa | 978.1
13982 kPa | 978.1
14031 kPa | 978.1
14074 kPa | 978.2
14118 kPa | 978.2
14166 kPa | 978.1
14190 kPa | 978.3
14210 kPa | 978.2
14230 kPa | 978.3
14254 kPa | 978.2
14274 kPa | 978.3
14298 kPa | 978.3
14319 kPa | 978.3
14340 kPa | 978.4
14360 kPa | 978.3
14384 kPa | 978.3
14405 kPa | 978.4
14426 kPa | 978.4
14446 kPa | 978.4
14472 kPa | 978.2
14492 kPa | 978.3
14514 kPa | 978.3
14539 kPa | 978.5
14560 kPa | 978.4
14582 kPa | 978.4
14608 kPa | 978.5
14625 kPa | 978.5
14650 kPa | 978.4
14671 kPa | 978.4
14693 kPa | 978.6
14718 kPa | 978.4
14740 kPa | 978.5
14765 kPa | 978.6
14787 kPa | 978.6
14809 kPa | 978.6
14835 kPa | 978.4
14857 kPa | 978.6
14879 kPa | 978.7
14906 kPa | 978.6
14928 kPa | 978.7
14950 kPa | 978.5
14976 kPa | 978.6
14999 kPa | 978.6
15022 kPa | 978.7
15044 kPa | 978.7
15071 kPa | 978.7
15093 kPa | 978.7
15116 kPa | 978.5
15143 kPa | 978.8
15166 kPa | 978.7
15189 kPa | 978.8
15217 kPa | 978.7
15240 kPa | 978.8
15263 kPa | 978.6
15291 kPa | 978.9
15314 kPa | 978.8
15338 kPa | 978.9
15366 kPa | 978.7
15389 kPa | 978.8
15417 kPa | 978.9
15441 kPa | 978.9
15465 kPa | 978.9
15488 kPa | 978.9
15517 kPa | 979
15542 kPa | 978.9
15566 kPa | 978.9
15595 kPa | 978.9
15620 kPa | 978.9
15644 kPa | 979
15673 kPa | 979
15698 kPa | 979
15722 kPa | 979
15752 kPa | 979.1
15776 kPa | 979.1
15801 kPa | 979.2
15831 kPa | 979
15856 kPa | 979.1
15882 kPa | 979.1
15912 kPa | 979.2
15938 kPa | 979.2
15963 kPa | 979.1
15994 kPa | 979.2
16019 kPa | 979.2
16045 kPa | 979.1
16076 kPa | 979.2
16102 kPa | 979.2
16128 kPa | 979.4
16159 kPa | 979.2
16185 kPa | 979.2
16212 kPa | 979.2
16238 kPa | 979.4
16270 kPa | 979.3
16296 kPa | 979.4
16328 kPa | 979.4
16355 kPa | 979.5
16382 kPa | 979.5
16409 kPa | 979.4
16441 kPa | 979.5
16468 kPa | 979.5
16501 kPa | 979.4
16528 kPa | 979.5
16556 kPa | 979.4
16591 kPa | 979.4
